# Source: publication PMC8621172, “Manipulating Estrogenic/Anti-Estrogenic Activity of Triphenylethylenes towards Development of Novel Anti-Neoplastic SERMs” (International Journal of Molecular Sciences, 2021)
# Assays:
# ER = conditions: fold over TAM; cited from earlier work
# renal cell lines = experiment: NCI five-dose assay, renal subpanel; type: cell-based; conditions: Homo sapiens
# Experimental: (§1) All compounds were subjected to the NCI in vitro disease-oriented human cells screening panel assay. The human tumor cell lines of the cancer-screening panel are grown in RPMI 1640 medium containing 5% fetal bovine serum and 2 mM L-glutamine. For a typical screening experiment, cells are inoculated into 96-well microtiter plates in 100 μL at plating densities ranging from 5000 to 40,000 cells/well depending on the doubling time of individual cell lines. After cell inoculation, the microtiter plates are incubated at 37 °C, 5% CO2, 95% air, and 100% relative humidity for 24 h prior to the addition of experimental drugs. After 24 h, two plates of each cell line are fixed in situ with TCA to represent a measurement of the cell population for each cell line at the time of drug addition. Experimental drugs are solubilized in dimethyl sulfoxide at 400-fold the desired final maximum test concentration and stored frozen prior to use. At the time of drug addition, an aliquot of frozen concentrate is thawed and diluted to twice the desired final maximum test concentration with complete medium containing 50 μg/mL gentamicin. […] Bound stain is subsequently solubilized with a 10 mM trizma base, and the absorbance is read on an automated plate reader at a wavelength of 515 nm. […] Three response parameters (GI50, TGI, and LC50) were calculated for each cell line.
# NSCLC cell lines = experiment: NCI five-dose assay, NSCLC subpanel; type: cell-based; conditions: Homo sapiens
# Experimental: as §1
# MCF-7 cells = experiment: NCI growth inhibition on MCF-7 (single dose and five-dose, SRB); type: cell-based, human; conditions: Homo sapiens, MCF7
# Experimental: Compounds were submitted to the Developmental Therapeutics Program (DTP) of the National Cancer Institute (NCI). The program uses a panel of 60 human tumor cell lines representing nine tissue types, including leukemia, non-small cell lung cancer (NSCLC), melanoma, colon cancer, ovarian cancer, CNS cancer, renal cancer, prostate cancer, and breast cancer, to screen for potential new anti-cancer agents. […] Primary screening of synthesized compounds was performed by testing a single high dose of 10 µM in the full NCI-60 panel. The percent growth of treated cells relative to the no-drug control and relative to the time zero number of cells was measured, and a mean graph was provided. The percentage inhibition was then calculated by subtracting the values obtained from 100.
# All compounds were subjected to the NCI in vitro disease-oriented human cells screening panel assay. The human tumor cell lines of the cancer-screening panel are grown in RPMI 1640 medium containing 5% fetal bovine serum and 2 mM L-glutamine. For a typical screening experiment, cells are inoculated into 96-well microtiter plates in 100 μL at plating densities ranging from 5000 to 40,000 cells/well depending on the doubling time of individual cell lines. After cell inoculation, the microtiter plates are incubated at 37 °C, 5% CO2, 95% air, and 100% relative humidity for 24 h prior to the addition of experimental drugs. After 24 h, two plates of each cell line are fixed in situ with TCA to represent a measurement of the cell population for each cell line at the time of drug addition. Experimental drugs are solubilized in dimethyl sulfoxide at 400-fold the desired final maximum test concentration and stored frozen prior to use. At the time of drug addition, an aliquot of frozen concentrate is thawed and diluted to twice the desired final maximum test concentration with complete medium containing 50 μg/mL gentamicin. Additional four, 10-fold, or ½ log serial dilutions are made to provide a total of five drug concentrations plus control. Aliquots of 100 μL of these different drug dilutions are added to the appropriate microtiter wells already containing 100 μL of medium, resulting in the required final drug concentrations. Following drug addition, the plates are incubated for an additional 48 h at 37 °C, 5% CO2, 95% air, and 100% relative humidity. For adherent cells, the assay is terminated by the addition of cold TCA. Cells are fixed in situ by the gentle addition of 50 μL of cold 50% (w/v) TCA (final concentration, 10% TCA) and incubated for 60 min at 4 °C. The supernatant is discarded, and the plates are washed five times with tap water and air-dried. Sulforhodamine B (SRB) solution (100 μL) at 0.4% (w/v) in 1% acetic acid is added to each well, and plates are incubated for 10 min at room temperature. After staining, unbound dye is removed by washing five times with 1% acetic acid, and the plates are air-dried. Bound stain is subsequently solubilized with a 10 mM trizma base, and the absorbance is read on an automated plate reader at a wavelength of 515 nm. For suspension cells, the methodology is the same except that the assay is terminated by fixing settled cells at the bottom of the wells by gently adding 50 μL of 80% TCA (final concentration, 16% TCA). Compounds are screened at a dose of 10 µM, hits showing mean growth inhibition over 60 cell lines >50% are escalated for 5-dose screening assay. To construct a dose-response curve, about 60 cell lines of nine tumor subpanels were incubated with five concentrations (0.01–100 μM) for each compound. Three response parameters (GI50, TGI, and LC50) were calculated for each cell line.
# prostate cell lines = experiment: NCI five-dose assay, prostate subpanel; type: cell-based; conditions: Homo sapiens
# Experimental: as §1
# colon cancer cell lines = experiment: NCI five-dose assay, colon cancer subpanel; type: cell-based; conditions: Homo sapiens
# Experimental: as §1
SMILES,affinity to the ER compared to the parent drug TAM (times) (ER),GI50 (renal cell lines) [µM],GI50 (NSCLC cell lines) [µM],inhibition at 10 µM (MCF-7 cells; 10 µM) [%],"GI50 (MCF-7 cells; MCF-7, five-dose assay, 48 h) [µM]",GI50 (prostate cell lines) [µM],GI50 (colon cancer cell lines) [µM]
"CC/C(=C(\c1ccc(O)cc1)c1ccc(OCCN(C)C)cc1)c1ccccc1 [Compound 4-OH-TAM, 4-hydroxy-TAM]",100,–,–,–,–,–,–
"CC/C(=C(\c1ccccc1)c1ccc(OCCN(C)C)cc1)c1ccccc1 [TAM, Tamoxifen, reference compound]",–,5,6.31,> 100,1.58,5.35,6.31
CC/C(=C(\c1ccc(O)cc1)c1ccc(OCCNC)cc1)c1ccccc1 [endoxifen],100,–,–,–,–,–,–
